From patent publication US3980646A, “3-Methylpyrazole-5-carboxylates and medicaments containing these compounds” (Wulfing; Johann A., priority 1974, dated 1976)
Values joined by “and” are separate entries in the source; they are usually repeats but may differ in a detail not shown here. Identical values can stand only once.

Columns and labels:
[1] = tested on: free fatty acids (FFS); test: influence on the free fatty acids (FFS) in starved (hyperlipacidaemic) animals, hunger lipolysis; assay type: in vivo, rats (Wistar); conditions: starved
Protocol: Investigations on a total of 260 Wistarrats were conducted with 7-[3-(N-methyl-N-2-hydroxyethyl)-amino-2-hydroxypropyl]-1,3-dimethylxanthine-3-methylpyrazole-5-carboxylate.
Examination of the influence of 7-[3-(N-methyl-N-2-hydroxy-
ethyl)-amino-2-hydroxypropyl]-1,3-dimethylxanthine-3-methyl-
pyrazole-5-carboxylate on the serum fatty acids (FFS) of
Male Rats, starve for 17 hours
Dose: 100 mg/kg body weight, oral by esophagus probe,
Blood removal: 1 hour after application
pyrazole-5-carboxylate on the free fatty acids (FFS) in
starved animals 1 hour after application
Comparative examinations of the influence of 7-[3-(N-methyl-
carboxylic acid on the free fatty acids (FFS) in starved
animals 1 hour after application
pyrazole-5-carboxylic acid on the free fatty acids (FFS)
in starved animals 6 hours after application

[2] = tested on: serum triglycerides (TG); test: influence on the serum triglycerides (TG) in normal animals; assay type: in vivo, Rats (Wistar); conditions: for TG: starve for 5 hours; for TG, mean (x): 1 hour
Protocol: Rats, starve for 5 hours
40 mg/kg body weight of active principle according to
the invention, oral by esophagus probe 1 hour before
12 mg/kg body weight of 3-methylpyrazole-5-carboxylic
acid, equim. dosage, 1 hour before removal of blood
Dose: 10 mg/kg body weight of active principle according to the
invention, oral by esophagus probe 1 hour before blood removal
Dose: 3 mg/kg body weight of 3-methylpyrazole-5-carboxylic acid,
equim. dosage, oral by esophagus probe 1 hour before

[3] = tested on: free fatty acids (FFS); test: influence on the free fatty acids (FFS) after repeated application once daily for 4 days; assay type: in vivo, Rats male (Wistar); conditions: for free fatty acids (FFS): individual animals, 15 mg/kg
Protocol: Rats male, repeated application once daily for 4 days,
on the 4th day groups of 10 animals were killed at
intervals of 30 minutes, 1 hour and 2 hours after the
last application by ether narcosis and heart puncture.
10 controls were given esophagus probe, animals starved
for 17 hours before killing (cf. FIG. 4)
7-[3-(N-methyl-2-hydroxyethyl)-amino-2-
hydroxypropyl]-1,3-dimethylxanthine-3-
methylpyrazole-5-carboxylate 50 mg/kg peroral
3-methylpyrazole-5-carboxylic acid (3-MPC)
eq./kg 15 mg/kg peroral

[4] = starving rats; David L. Smith et al; cited from earlier work
[5] = tested on: free fatty acids and triglycerides in the serum; conditions: cited from earlier work
[6] = free acid, known per se; cited from earlier work

With `Cc1cc(C(=O)O)[nH]n1` [3-methylpyrazole-5-carboxylic acid, reference compound] the FFS ([1]; Table 5, individual animals, 1 hour after application, 15 mg/kg) was 0.41 μval/ml and 0.43 μval/ml and 0.59 μval/ml and 0.52 μval/ml and 0.67 μval/ml and 0.37 μval/ml and 0.40 μval/ml and 0.54 μval/ml and 0.44 μval/ml, the “FFS, mean” value ([1]; Table 5, mean, n=10, 1 hour after application, 15 mg/kg, control 1.08, p<0.001) was 0.47 μval/ml and the FFS ([1]; Table 6, individual animals, 6 hours after application, 15 mg/kg p.o., 15 mg/kg) was 0.51 μval/ml and 0.50 μval/ml and 0.67 μval/ml and 0.64 μval/ml and 0.56 μval/ml and 0.53 μval/ml and 0.61 μval/ml and 0.85 μval/ml and 0.44 μval/ml and 0.54 μval/ml and 0.58 μval/ml and 1.00 μval/ml and 0.47 μval/ml and 1.46 μval/ml and 1.10 μval/ml. The “FFS, mean (x)” value ([1]; Table 6, mean, n=21, 6 hours after application, 15 mg/kg p.o., control 0.86, p<0.01) was 0.69 μval/ml, the TG ([2]; Table 7, individual animals, 12 mg/kg (equim. dosage) 1 hour before removal of blood, 12 mg/kg) was 90.2 mg % and 87.3 mg % and 58.7 mg % and 107.4 mg % and 51.6 mg % and 55.8 mg % and 71.6 mg % and 60.1 mg % and 68.7 mg % and the “TG, mean (x)” value ([2]; Table 7, mean, 12 mg/kg (equim. dosage), control x = 66.4) was 74.1 mg %. The TG ([2]; Table 8, individual animals, 3 mg/kg (equim. dosage) oral 1 hour before blood removal, 3 mg/kg) was 137.4 mg % and 87.3 mg % and 70.2 mg % and 74.4 mg % and 50.1 mg % and 43.0 mg % and 57.2 mg % and 51.5 mg % and 32.9 mg % and 73.0 mg %, the “TG, mean (x)” value ([2]; Table 8, mean, 3 mg/kg (equim. dosage) oral, control x = 86.3, p>0.05→Ko., p>0.05→xant.-carbox.) was 67.7 mg % and the “effect on serum triglyceride level of normal animals” value ([2]; equimolecular doses of the free acid, result in words) was “relatively weak, i.e. insignificant effect”. For the same compound, the “free fatty acids (FFS)” value ([3]; 15 mg/kg p.o. 4 × appl., 30' after last application) was 0.66 μval/ml plasma and 0.59 μval/ml plasma and 0.53 μval/ml plasma and 0.91 μval/ml plasma and 0.56 μval/ml plasma and 0.95 μval/ml plasma and 1.02 μval/ml plasma and 0.81 μval/ml plasma and 0.80 μval/ml plasma and 0.60 μval/ml plasma, the “free fatty acids (FFS)” value ([3]; 15 mg/kg p.o. 4 × appl., 1 h after last application) was 0.75 μval/ml plasma and 0.73 μval/ml plasma and 0.95 μval/ml plasma and 0.96 μval/ml plasma and 1.03 μval/ml plasma and 1.16 μval/ml plasma and 1.08 μval/ml plasma and 0.84 μval/ml plasma and 1.24 μval/ml plasma and 0.92 μval/ml plasma and the “free fatty acids (FFS)” value ([3]; 15 mg/kg p.o. 4 × appl., 2 h after last application) was 0.62 μval/ml plasma and 0.59 μval/ml plasma and 0.51 μval/ml plasma and 0.70 μval/ml plasma and 0.88 μval/ml plasma and 0.84 μval/ml plasma and 1.27 μval/ml plasma and 1.20 μval/ml plasma and 0.86 μval/ml plasma. For the same compound, the “free fatty acids (FFS), mean (x9)” value ([3]; mean of 9, 15 mg/kg p.o. 4 × appl., 2 h after last application, control 1.27, p<0.001) was 0.83 μval/ml plasma, the “free fatty acids (FFS), mean (x10)” value ([3]; 15 mg/kg p.o. 4 × appl., 30' after last application, control 1.27, p<0.001) was 0.74 μval/ml plasma and the “free fatty acids (FFS), mean (x10)” value ([3]; 15 mg/kg p.o. 4 × appl., 1 h after last application, control 1.27, p<0.001) was 0.97 μval/ml plasma. For the same compound, the “weakening of effect on free fatty acid content by pretreatment” value ([3]; repeated application, result in words) was “able to confirm the results of these tests”, the “hypoglycaemic activity relative to tolbutamide” value [4] was “two hundred times” and the tachyphylaxia ([5]; observed by the authors, limits its suitability for therapeutic application) was “tachyphylaxia”. For the same compound, the “effect of pretreatment on the free fatty acid content of the plasma” value ([5]; pretreatment 4 to 5 days, Gerritzen et al) was “weakens the effect on the free fatty acid content of the plasma”, the “level of free fatty acids and triglycerides in the serum” value ([5]; small doses, starving normal rats) was “reduces the level of free fatty acids and triglycerides in the serum” and the lipid-lowering activity [6] was “shows corresponding activity”.
